Patent publication US11566007B2, “Ras inhibitors” (Revolution Medicines, Inc., priority 2019, dated 2023)
Like-named read-outs stand apart in the source and are kept apart here. One block for each molecule: values may come before it.

Key:
[1] = tested on: NCI-H358 cells (K-Ras G12C); experiment: Potency assay: pERK in NCI-H358 cells; format: cell-based, human
Experimental: The purpose of this assay is to measure the ability of test compounds to inhibit K-Ras in cells. […] This procedure measures a decrease in cellular pERK in response to test compounds.
NCI-H358 cells were grown and maintained using media and procedures recommended by the ATCC. On the day prior to compound addition, cells were plated in 384-well cell culture plates (40 μl/well) and grown overnight in a 37° C., 5% CO2 incubator. Test compounds were prepared in 10, 3-fold dilutions in DMSO, with a high concentration of 10 mM. On the day of assay, 40 nL of test compound was added to each well of cell culture plate using an Echo550 liquid handler (LabCyte®). Concentrations of test compound were tested in duplicate. After compound addition, cells were incubated 4 hours at 37° C., 5% CO2. Following incubation, culture medium was removed and cells were washed once with phosphate buffered saline.
In some experiments, cellular pERK level was determined using the AlphaLISA SureFire Ultra p-ERK1/2 Assay Kit (PerkinElmer). Cells were lysed in 25 μL lysis buffer, with shaking at 600 RPM at room temperature. […] After a 2-hour incubation in the dark, 5 μL donor mix was added, plate was sealed, and incubated 2 hours at room temperature. Signal was read on an Envision plate reader (PerkinElmer) using standard AlphaLISA settings. Analysis of raw data was carried out in Excel (Microsoft) and Prism (GraphPad). Signal was plotted vs. the decadal logarithm of compound concentration, and IC50 was determined by fitting a 4-parameter sigmoidal concentration response model.
In other experiments, cellular pERK was determined by In-Cell Western. […] Fixed cells were washed 4 times for 5 minutes with TBS containing 0.1% Triton X-100 (TBST) and then blocked with 100 μL Odyssey blocking buffer (LI-COR) for 60 minutes at room temperature. […] Cells were washed 4 times for 5 minutes with TBST. Secondary antibody (IR-800CW rabbit, LI-COR, diluted 1:800) and DNA stain DRAQS (LI-COR, diluted 1:2000) were added and incubated 1-2 hours at room temperature. Cells were washed 4 times for 5 minutes with TBST. Plates were scanned on a Li-COR Odyssey CLx Imager. Analysis of raw data was carried out in Excel (Microsoft) and Prism (Graph Pad). Signal was plotted vs. the decadal logarithm of compound concentration, and IC50 was determined by fitting a 4-parameter sigmoidal concentration response model.

NCI-H358 (K-Ras G12C) = experiment: CellTiter-Glo cell viability assay, NCI-H358; format: cell-based, human; conditions: NCI-H358, 5-day treatment, class symbols, read-out: Additional H358 Cell Viability assay data (K-Ras G12C, IC50)
Experimental: Note—The following protocol describes a procedure for monitoring cell viability of K-Ras mutant cancer cell lines in response to a compound of the invention. Other RAS isoforms may be employed, though the number of cells to be seeded will vary based on cell line used.
Test compounds (132.5 nL) were directly dispensed into the assay plates containing cells. […] On day 5, assay plates and their contents were equilibrated to room temperature for approximately 30 minutes. […] Luminescence was measured using the PerkinElmer Enspire. Data were normalized by the following: (Sample signal/Avg. DMSO)*100. The data were fit using a four-parameter logistic fit.

KRAS G12S = KRAS G12S (Homo sapiens (Human), UniProt P01116+P62937, G12S); experiment: Ras-Raf (BRAF RBD) disruption / FRET / MOA assay, KRAS G12S; format: biochemical; conditions: Ras-Raf disruption/FRET/MOA assay; class symbols; read-out: KRAS G12S FRET data IC50
KRAS G12S, sequence (P01116-2 other isoform, or with tags, fused parts or gaps G12S): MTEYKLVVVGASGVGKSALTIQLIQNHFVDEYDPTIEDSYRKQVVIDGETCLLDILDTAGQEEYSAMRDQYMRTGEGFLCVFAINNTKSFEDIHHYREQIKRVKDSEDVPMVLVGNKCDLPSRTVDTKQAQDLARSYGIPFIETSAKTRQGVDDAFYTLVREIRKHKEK
KRAS G12S, sequence (P62937 whole entry, canonical isoform): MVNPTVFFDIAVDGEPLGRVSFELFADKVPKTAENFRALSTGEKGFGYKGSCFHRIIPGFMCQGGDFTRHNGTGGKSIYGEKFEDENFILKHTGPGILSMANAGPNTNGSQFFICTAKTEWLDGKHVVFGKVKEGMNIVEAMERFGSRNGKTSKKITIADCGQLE
Experimental: (§1) The purpose of this biochemical assay is to measure the ability of test compounds to facilitate ternary complex formation between a nucleotide-loaded Ras isoform and cyclophilin A; the resulting ternary complex disrupts binding to a BRAF^RBD construct, inhibiting Ras signaling through a RAF effector.
(§2) Compound is present in plate wells as a 10-point 3-fold dilution series starting at a final concentration of 30 μM. After incubation at 25° C. for 3 hours, a mixture of Anti-His Eu-W1024 and anti-GST allophycocyanin is then added to assay sample wells at final concentrations of 10 nM and 50 nM, respectively, and the reaction incubated for an additional 1.5 hours. […] Compounds that facilitate disruption of a Ras:RAF complex are identified as those eliciting a decrease in the TR-FRET ratio relative to DMSO control wells.
(§3) This protocol may also be executed substituting other Ras proteins or nucleotides.
(§4) The purpose of this biochemical assay was to measure the ability of test compounds to facilitate ternary complex formation between a nucleotide-loaded K-Ras isoform and Cyclophilin A; the resulting ternary complex disrupts binding to a BRAF^RBD construct, inhibiting K-Ras signaling through a RAF effector. Data is reported as IC50 values.
as §2, with “Compound was” for “Compound is”, “allophycocyanin was” for “allophycocyanin is”, “a K-Ras:RAF” for “a Ras:RAF”, “complex were” for “complex are”

KRAS G12D = KRAS G12D (Homo sapiens (Human), UniProt P01116+P62937, G12D); experiment: Ras-Raf (BRAF RBD) disruption / FRET / MOA assay, KRAS G12D; format: biochemical; conditions: Ras-Raf disruption/FRET/MOA assay; class symbols; read-out: KRAS G12D FRET data IC50
KRAS G12D, sequence (P01116-2 other isoform, or with tags, fused parts or gaps G12D): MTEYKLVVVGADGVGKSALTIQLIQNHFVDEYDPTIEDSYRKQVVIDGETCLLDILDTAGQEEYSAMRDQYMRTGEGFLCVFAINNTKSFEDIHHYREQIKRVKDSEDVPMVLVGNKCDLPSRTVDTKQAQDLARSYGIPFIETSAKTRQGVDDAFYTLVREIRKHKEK
KRAS G12D, sequence (P62937 whole entry): as the sequence (P62937 whole entry, canonical isoform) above
Experimental: as §1, §2, §3, §4
as §2, with “Compound was” for “Compound is”, “allophycocyanin was” for “allophycocyanin is”, “a K-Ras:RAF” for “a Ras:RAF”, “complex were” for “complex are”

[2] = Homo sapiens, NCI-H358, H358 KRAS G12C, read-out: pERK EC50
[3] = H358 KRAS G12C, read-out: pERK EC50

Structure (SMILES): C=CC(=O)N1CC[C@H](C(=O)N(C)[C@H](C(=O)N[C@H]2Cc3cccc(c3)-c3ccc4c(c3)c(c(-c3ccccc3CCOC)n4CC)CC(C)(C)COC(=O)[C@@H]3CCCN(N3)C2=O)C(C)C)C1 (atropisomer, axis not shown) [Example A24]
EC50 [1, 2]: < 5 µM | IC50 (NCI-H358 (K-Ras G12C); Homo sapiens, NCI-H358, 120 h): > 1 µM

Structure (SMILES): CC#CC(=O)N1CC[C@H](C(=O)N(C)[C@@H](C(=O)N[C@H]2Cc3cc(O)cc(c3)-c3ccc4c(c3)c(c(-c3cccnc3[C@H](C)OC)n4CC)CC(C)(C)COC(=O)[C@@H]3CCCN(N3)C2=O)C(C)C)C1 (atropisomer, axis not shown) [Example A198]
IC50 (NCI-H358 (K-Ras G12C)): > 1 µM

Structure (SMILES): CC#CC(=O)N1CC[C@H](C(=O)N(C)[C@H](C(=O)N[C@H]2Cc3cc(O)cc(c3)-c3ccc4c(c3)c(c(-c3cccnc3[C@H](C)OC)n4CC)CC(C)(C)COC(=O)[C@@H]3CCCN(N3)C2=O)C(C)C)C1 (atropisomer, axis not shown; (M)) [Example A145, (2S)-2-{1-[(3S)-1-(but-2-ynoyl)pyrrolidin-3-yl]-N-methylformamido}-N-[(8S,14S,20M)-22-ethyl-4-hydroxy-21-{2-[(1S)-1-methoxyethyl]pyridin-3-yl}-18,18-dimethyl-9,15-dioxo-16-oxa-10,22,28-triazapentacyclo[18.5.2.1^2,^6.1^10,^14.0^23,^27]nonacosa-1(26),2,4,6(29),20,23(27),24-heptaen-8-yl]-3-methylbutanamide]
EC50 [1, 3]: < 5 µM

Structure (SMILES): C=CC(=O)N1CC[C@H](C(=O)N(C)[C@H](C(=O)N[C@H]2Cc3cc(O)cc(c3)-c3ccc4c(c3)c(c(-c3ccccc3CCOC)n4C(C)(C)C#N)CC(C)(C)COC(=O)[C@@H]3CCCN(N3)C2=O)C(C)C)C1 [Example A12]
EC50 [1, 2]: < 5 µM

Structure (SMILES): C=CC(=O)N1CCN(C(=O)N(C)[C@H](C(=O)N[C@H]2Cc3cc(O)cc(c3)-c3ccc4c(c3)c(c(-c3ccccc3CN(C)C)n4CC)CC(C)(C)COC(=O)[C@@H]3CCCN(N3)C2=O)C(C)C)CC1 [Example A37]
EC50 [1, 2]: < 5 µM

Structure (SMILES): CCn1c(-c2ccccc2CN(C)C)c2c3cc(ccc31)-c1cc(O)cc(c1)C[C@H](NC(=O)[C@H](C(C)C)N(C)C(=O)c1ccc(NC(=O)/C=C/CN(C)C)cc1)C(=O)N1CCC[C@H](N1)C(=O)OCC(C)(C)C2 [Example A49]
IC50 (NCI-H358 (K-Ras G12C); Homo sapiens, NCI-H358, 120 h): > 1 µM

Structure (SMILES): CCn1c(-c2cccnc2COC)c2c3cc(ccc31)-c1cc(O)cc(c1)C[C@H](NC(=O)[C@H](C(C)C)N(C)C(=O)[C@H]1CCN(C(=O)/C=C/CN3CCN(C)CC3)C1)C(=O)N1CCC[C@H](N1)C(=O)OCC(C)(C)C2 [Example A72]
IC50 (NCI-H358 (K-Ras G12C); Homo sapiens, NCI-H358, 120 h): > 1 µM

Structure (SMILES): C=CC(=O)N1CC[C@H](C(=O)N(C)[C@H](C(=O)N[C@H]2Cc3cc(O)cc(c3)-c3ccc4c(c3)c(c(-c3cccnc3)n4C(C)(C)C#N)CC(C)(C)COC(=O)[C@@H]3CCCN(N3)C2=O)C(C)C)C1 [Example A74]
EC50 [1, 3]: < 5 µM

Structure (SMILES): C=CC(=O)N1CC[C@H](C(=O)N(C)[C@H](C(=O)N[C@H]2Cc3cc(O)cc(c3)-c3ccc4c(c3)c(c(-c3cnccc3[C@H](C)OC)n4CC)CC(C)(C)COC(=O)[C@@H]3CCCN(N3)C2=O)C(C)C)C1 [Example A76]
EC50 [1, 3]: < 5 µM

Structure (SMILES): C=CC(=O)N1CC[C@H](C(=O)N(C)[C@H](C(=O)N[C@H]2Cc3cc(OC(=O)N(C)CC(=O)O)cc(c3)-c3ccc4c(c3)c(c(-c3ccccc3CCOC)n4CC)CC(C)(C)COC(=O)[C@@H]3CCCN(N3)C2=O)C(C)C)C1 [Example A78]
EC50 ([1]; Homo sapiens, NCI-H358, read-out: pERK EC50): < 5 µM

Structure (SMILES): C=CC(=O)N1CC[C@H](C(=O)N(C)[C@H](C(=O)N[C@H]2Cc3cc(O)cc(c3)-c3ccc4c(c3)c(c(-c3cncc(CCN(C)C)c3)n4CC)CC(C)(C)COC(=O)[C@@H]3CCCN(N3)C2=O)C(C)C)C1 [Example A81]
EC50 [1, 2]: < 5 µM

Structure (SMILES): CCn1c(-c2cnccc2COC)c2c3cc(ccc31)-c1cc(O)cc(c1)C[C@H](NC(=O)[C@H](C(C)C)N(C)C(=O)[C@H]1CCN(C(=O)C#CCN(C)C)C1)C(=O)N1CCC[C@H](N1)C(=O)OCC(C)(C)C2 [Example A88]
EC50 [1, 2]: < 5 µM

Structure (SMILES): CCn1c(-c2ccccc2CN(C)C)c2c3cc(ccc31)-c1cc(O)cc(c1)C[C@H](NC(=O)[C@H](C(C)C)N(C)C(=O)c1nc(NC(=O)/C=C/CN(C)C)cs1)C(=O)N1CCC[C@H](N1)C(=O)OCC(C)(C)C2 [Example A90]
IC50 (NCI-H358 (K-Ras G12C); Homo sapiens, NCI-H358, 120 h): > 1 µM

Structure (SMILES): C=CC(=O)N1CC[C@H](C(=O)N(C)[C@H](C(=O)NC2C[C@@H]3CN(CCO3)c3ccc4c(c3)c(c(-c3cccnc3COC)n4CC)CC(C)(C)COC(=O)[C@@H]3CCCN(N3)C2=O)C(C)C)C1 (some centres unmarked) [Example A318]
IC50 (NCI-H358 (K-Ras G12C)): > 1 µM | IC50 (KRAS G12S): > 10 µM | IC50 (KRAS G12D): > 10 µM

Structure (SMILES): C=CC(=O)N1CC[C@H](C(=O)N(C)[C@H](C(=O)N[C@H]2Cc3cc(O)cc(c3)-c3ccc4c(c3)c(c(-c3ccc(CN5CC[C@@H](O)C5)cc3)n4CC)CC(C)(C)COC(=O)[C@@H]3CCCN(N3)C2=O)C(C)C)C1 [Examples A001]
IC50 (KRAS G12S): 1 to 10 µM | IC50 (KRAS G12D): > 10 µM

Now from value to molecule:

EC50 [1, 2]: < 5 µM | IC50 (NCI-H358 (K-Ras G12C); Homo sapiens, NCI-H358, 120 h): 0.1 to 1 µM
Structure (SMILES): C=CC(=O)N1CC[C@H](C(=O)N(C)[C@H](C(=O)N[C@H]2Cc3cc(O)cc(c3)-c3cc(F)c4c(c3)c(c(-c3ccccc3CCOC)n4CC)CC(C)(C)COC(=O)[C@@H]3CCCN(N3)C2=O)C(C)C)C1 (atropisomer, axis not shown) [Example A53]

EC50 [1, 2]: < 5 µM
Structure (SMILES): C=CC(=O)N1CC[C@H](C(=O)N(C)[C@H](C(=O)N[C@H]2Cc3cc(O)cc(c3)-c3ccc4c(c3)c(c(-c3ccccc3CO)n4CC)CC(C)(C)COC(=O)[C@@H]3CCCN(N3)C2=O)C(C)C)C1 [Example A4]

EC50 [1, 2]: < 5 µM
Structure (SMILES): CCn1c(-c2ccccc2CCOC)c2c3cc(ccc31)-c1cc(O)cc(c1)C[C@H](NC(=O)[C@H](C(C)C)N(C)C(=O)[C@H]1CCN(C(=O)/C=C/CN(C)C)C1)C(=O)N1CCC[C@H](N1)C(=O)OCC(C)(C)C2 [Example A15]

EC50 [1, 2]: < 5 µM
Structure (SMILES): C=CC(=O)N1CC[C@H](C(=O)N(C)[C@H](C(=O)N[C@H]2Cc3cc(OC(=O)CCC(=O)O)cc(c3)-c3ccc4c(c3)c(c(-c3ccccc3CCOC)n4CC)CC(C)(C)COC(=O)[C@@H]3CCCN(N3)C2=O)C(C)C)C1 [Example A32]

EC50 [1, 3]: < 5 µM
Structure (SMILES): C=CC(=O)N1CC[C@H](C(=O)N(C)[C@H](C(=O)N[C@H]2Cc3cc(O)cc(c3)-c3ccc4c(c3)c(c(-c3ccccc3CCOC)n4C(C)(C)C#N)CC(C)(C)COC(=O)[C@@H]3CCCN(N3)C2=O)C(C)C)C1 [Example A34]

EC50 [1, 2]: < 5 µM
Structure (SMILES): C=CC(=O)N1CC[C@H](C(=O)N(C)[C@H](C(=O)N[C@H]2Cc3cc(O)cc(c3)-c3ccc4c(c3)c(c(-c3ccncc3CCOC)n4CC)CC(C)(C)COC(=O)[C@@H]3CCCN(N3)C2=O)C(C)C)C1 [Example A48]
